Holding throughout (assay): biochemical
In one assay the target is Aurora B (Homo sapiens, UniProt Q96GD4). To be noted: read-out: Aurora B activity as percentage of control without inhibitor. The procedure: (§1) All assays (25.5 μl) were carried out at room temperature (21° C.) and were linear with respect to time and enzyme concentrations under the conditions used. Assays were performed for 30 minutes except assays for LCK and PKB which were performed for 15 minutes using Multidrop Micro reagent dispensers (Thermo Electron Corporation, Waltham, Mass. 02454, USA) in a 96-well format. The concentration of […] [γ-^33P] ATP (800 cpm/pmol) in the assays was one of three concentrations (5, 20 or 50 μM) in order to be at or below Km for ATP for the enzyme. Assays were initiated with MgATP and stopped by addition of 5 μl of 0.5M orthophosphoric acid. Assays were then harvested onto P81 filterplates using a unifilter harvester (PerkinElmer, Boston, Mass. 02118, USA), with a wash buffer of 50 mM orthophosphoric acid. Filterplates were then air dried overnight. 10 μl of Microscint O was added per well prior to counting for radioactivity.
(§2) The following kinases were assayed against the substrates indicated. Aurora B was assayed against the substrate peptide […] (300 μM), ERK8 and MST-2 were both assayed against MBP (0.33 mg/ml). IKKβ was assayed against the substrate peptide […] (300 μM), JNK3 was assayed against 3 μM ATF2[19-96]. MAPKAP-K3 and PKD1 were both assayed against […] (30 μM), MARK3 was assayed against CHKtide ([…]) substrate peptide (300 μM). MNK1 and MNK2 were both assayed against eIF4E protein (0.5 mg/ml). NEK7 was assayed against […] (300 μM), PIM2 was assayed against […] (300 μM), ΔPH PKBβ-S474D was assayed against Crosstide (30 μM), PLK1 was assayed against […] (300 μM). PRK2 was assayed against Long S6 peptide, […] (30 μM), RSK2 was assayed against […] (30 μM), SRC was assayed against cdc2 peptide, […], (300 μM) and SRPK1 was assayed against peptide […] (300 μM). All enzymes were diluted in 50 mM Tris/HCl pH 7.5, 0.1 mM EGTA, 1 mg/ml BSA, 0.1% β-mercaptoethanol buffer and assayed in an incubation containing 50 mM Tris/HCl pH7.5, 0.1 mM EGTA, 0.1% β-mercaptoethanol, CAMK-1 (5-20 mU) diluted in 50 mM Tris/HCl pH 7.5, 0.1 mM EGTA, 1 mg/ml BSA, 0.1% β-mercaptoethanol is assayed against substrate peptide […] in an incubation containing 50 mM Tris/HCl pH 7.5, 0.1 mM EGTA, 0.5 mM CaCl2, 0.3 μM calmodulin, 0.1% β-mereaptoethanol, 300 μM substrate peptide, 10 mM magnesium acetate and 0.05 mM [^33P-γ-ATP] (500-1000 cpm/pmole). EF2K (5-20 mU) diluted in 50 mM Hepes pH 6.6, 0.1% β-mercaptoethanol, 1 mg/ml BSA is assayed against a substrate peptide […] in an incubation containing 50 mM Hepes pH 6.6, 0.2 mM CaCl2, 0.3 μM Calmodulin, 0.05% b-mercaptoethanol, 300 μM substrate peptide, 10 mM magnesium acetate and 0.05 mM [^33P-γ-ATP] (500-1000 cpm/pmole).

The target of a further assay is T1, EFK2 (Homo sapiens, UniProt O00418).
T1 sequence (O00418 1-725): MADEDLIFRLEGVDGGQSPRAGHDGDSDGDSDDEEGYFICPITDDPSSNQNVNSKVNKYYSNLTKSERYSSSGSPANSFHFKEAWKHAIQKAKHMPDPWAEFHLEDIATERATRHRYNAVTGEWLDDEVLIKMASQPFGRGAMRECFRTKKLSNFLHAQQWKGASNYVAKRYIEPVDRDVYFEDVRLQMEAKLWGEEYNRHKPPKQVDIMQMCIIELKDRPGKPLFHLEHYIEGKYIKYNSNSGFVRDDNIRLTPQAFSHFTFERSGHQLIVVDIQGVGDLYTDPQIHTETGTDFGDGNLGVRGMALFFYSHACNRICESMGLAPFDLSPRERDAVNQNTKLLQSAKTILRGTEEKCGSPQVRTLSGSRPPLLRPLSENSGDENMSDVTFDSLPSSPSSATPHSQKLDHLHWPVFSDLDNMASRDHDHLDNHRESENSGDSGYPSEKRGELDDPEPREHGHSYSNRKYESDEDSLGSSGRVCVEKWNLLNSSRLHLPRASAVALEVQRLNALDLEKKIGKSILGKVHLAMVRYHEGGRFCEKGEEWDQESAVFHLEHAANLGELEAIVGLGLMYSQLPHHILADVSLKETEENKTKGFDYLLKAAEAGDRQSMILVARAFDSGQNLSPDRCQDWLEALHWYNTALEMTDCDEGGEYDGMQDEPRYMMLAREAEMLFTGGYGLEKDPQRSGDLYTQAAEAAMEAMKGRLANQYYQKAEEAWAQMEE
To be noted: read-out: EFK2 activity as percentage of control without inhibitor. The procedure:
as §1, §2

The next assay addresses MAPKAP-K3 (Homo sapiens, UniProt Q16644). Particulars: read-out: MAPKAP-K3 activity as percentage of control without inhibitor. The protocol: as §1, §2
For the next assay, the target named is NEK7 (Homo sapiens, UniProt Q8TDX7). Particulars: read-out: NEK7 activity as percentage of control without inhibitor. The protocol:
as §1, §2

A further assay has as its target SRPK1 (Homo sapiens, UniProt Q96SB4). Particulars: read-out: SRPK1 activity as percentage of control without inhibitor. The procedure:
as §1, §2

Like-named read-outs stand apart in the source and are kept apart here.

MAPKAP-K3, sequence (Q16644 whole entry, species assumed): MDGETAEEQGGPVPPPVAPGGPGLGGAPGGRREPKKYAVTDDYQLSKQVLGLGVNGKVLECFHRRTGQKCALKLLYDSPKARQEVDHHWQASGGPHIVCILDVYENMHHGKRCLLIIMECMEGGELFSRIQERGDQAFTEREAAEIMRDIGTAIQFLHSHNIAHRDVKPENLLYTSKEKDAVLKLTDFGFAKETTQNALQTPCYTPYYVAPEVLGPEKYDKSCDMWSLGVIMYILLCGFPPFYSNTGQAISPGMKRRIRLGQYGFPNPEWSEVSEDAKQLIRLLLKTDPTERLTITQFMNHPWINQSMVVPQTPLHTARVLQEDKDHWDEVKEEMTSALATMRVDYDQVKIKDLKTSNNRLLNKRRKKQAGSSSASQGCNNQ
Aurora B, sequence (Q96GD4 whole entry): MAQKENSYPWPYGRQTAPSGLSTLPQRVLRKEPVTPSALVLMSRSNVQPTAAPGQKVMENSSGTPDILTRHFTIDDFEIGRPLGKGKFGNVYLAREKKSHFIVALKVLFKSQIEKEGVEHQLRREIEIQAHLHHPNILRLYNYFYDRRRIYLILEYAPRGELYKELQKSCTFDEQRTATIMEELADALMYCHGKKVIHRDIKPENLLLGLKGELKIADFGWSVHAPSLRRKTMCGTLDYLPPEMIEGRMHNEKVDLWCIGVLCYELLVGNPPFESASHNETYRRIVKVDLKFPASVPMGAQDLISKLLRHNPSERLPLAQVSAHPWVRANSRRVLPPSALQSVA
NEK7, sequence (Q8TDX7 whole entry, species assumed): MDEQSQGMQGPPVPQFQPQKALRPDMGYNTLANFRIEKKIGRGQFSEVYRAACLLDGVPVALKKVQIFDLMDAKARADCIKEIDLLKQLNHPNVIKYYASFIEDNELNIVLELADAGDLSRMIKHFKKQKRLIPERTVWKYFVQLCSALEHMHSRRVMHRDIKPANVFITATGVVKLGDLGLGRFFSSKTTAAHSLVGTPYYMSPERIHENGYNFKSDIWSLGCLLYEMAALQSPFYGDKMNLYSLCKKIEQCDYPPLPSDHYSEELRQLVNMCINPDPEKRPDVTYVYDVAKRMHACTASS
SRPK1, sequence (Q96SB4 whole entry, species assumed): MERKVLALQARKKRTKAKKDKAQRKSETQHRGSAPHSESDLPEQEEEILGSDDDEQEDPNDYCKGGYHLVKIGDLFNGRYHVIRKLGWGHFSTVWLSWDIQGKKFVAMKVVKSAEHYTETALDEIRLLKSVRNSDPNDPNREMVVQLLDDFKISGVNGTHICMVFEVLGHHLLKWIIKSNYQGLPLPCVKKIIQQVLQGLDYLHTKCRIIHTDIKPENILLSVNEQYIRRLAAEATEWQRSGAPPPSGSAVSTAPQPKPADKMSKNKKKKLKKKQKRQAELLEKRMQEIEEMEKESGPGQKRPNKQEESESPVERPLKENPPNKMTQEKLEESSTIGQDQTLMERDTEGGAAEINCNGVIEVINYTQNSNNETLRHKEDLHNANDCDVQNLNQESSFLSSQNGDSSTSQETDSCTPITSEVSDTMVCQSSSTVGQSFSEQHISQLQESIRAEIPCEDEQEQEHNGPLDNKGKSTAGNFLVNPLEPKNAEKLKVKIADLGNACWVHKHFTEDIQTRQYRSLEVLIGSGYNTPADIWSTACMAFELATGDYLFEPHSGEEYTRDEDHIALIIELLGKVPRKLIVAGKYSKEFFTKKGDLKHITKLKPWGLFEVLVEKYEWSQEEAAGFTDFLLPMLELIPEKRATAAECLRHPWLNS

With `COc1ccc2c3c([nH]c2c1)C(C)=NCC3` [Harmaline], the remaining activity at 1 µM at Aurora B (inhibitor 1 μM) worked out at 98%; at EFK2 (inhibitor 1 μM) it was 106%; at MAPKAP-K3 (inhibitor 1 μM), 79%; on NEK7 (inhibitor 1 μM), 95%; on SRPK1 (inhibitor 1 μM), 104%. Moreover, the remaining activity at 10 µM on Aurora B (inhibitor 10 μM) worked out at 112%; on EFK2 (inhibitor 10 μM), 100%; on MAPKAP-K3 (inhibitor 10 μM), 82%; on NEK7 (inhibitor 10 μM) it was 115%; on SRPK1 (inhibitor 10 μM) it was 97%.
As to `CC1=NCCc2c1[nH]c1cc(O)ccc21` [Harmalol], the remaining activity at 1 µM at Aurora B (inhibitor 1 μM) came to 110%; on EFK2 (inhibitor 1 μM), 97%; at MAPKAP-K3 (inhibitor 1 μM) it was 95%; on NEK7 (inhibitor 1 μM) it was 83%; at SRPK1 (inhibitor 1 μM) it was 88%. Besides, the remaining activity at 10 µM came to 83% on Aurora B (inhibitor 10 μM); 85% at EFK2 (inhibitor 10 μM); 88% on MAPKAP-K3 (inhibitor 10 μM); 56% on NEK7 (inhibitor 10 μM); 72% on SRPK1 (inhibitor 10 μM).
Consider `COc1ccc2c(c1)[nH]c1c(C)nccc12` [Harmine], for which the remaining activity at 1 µM is 100% at Aurora B; 102% at EFK2; 89% on MAPKAP-K3; 90% at NEK7; 86% at SRPK1. Moreover, the remaining activity at 10 µM on Aurora B was determined as 102%; at EFK2, 101%; at MAPKAP-K3 it was 93%; at NEK7 it was 92%; on SRPK1, 83%.

Source of the values: US20100063085A1, “METHOD OF TREATING LEARNING IMPAIRMENT IN DOWN'S SYNDROME SUBJECTS” (University Court of The University of Dundee, priority 2008, published 2010).
